What was measured:
HUVEC = experiment: bFGF stimulated HUVEC proliferation in the presence of bFGF peptides; assay type: cell-based; conditions: free synthetic peptide, in vitro
bFGF = experiment: Serum antibody response (ELISA) after vaccination with bFGF peptides conjugated to lipid A liposomes; assay type: in vivo; conditions: C57BL/6J mice, peptide covalently conjugated to liposomal vesicles containing lipid A
Source text: Both peptides A and B were incorporated into lipid A containing liposomes and used separately in a vaccination protocol. Peptides were conjugated to liposomes according to the methods and protocols described above in Example 8. Mice were immunized and boosted twice, bled and pooled serum analyzed for anti-peptide antibody titer and crossreactivity to bFGF by ELISA.
The comparison of titers and crossreactivity for serum from mice vaccinated with whole bFGF or with the liposomal heparin binding domain peptide of bFGF vaccine is shown in FIG. 4 and a comparison of the titers and crossreactivity for serum from mice vaccinated with whole bFGF or the liposomal receptor binding domain peptide of bFGF vaccine is shown in FIG. 5.

LLC-LM = LLC-LM experimental metastatic model, intravenous challenge, lung weight; assay type: in vivo, mice; conditions: peptide in liposome format, 3 inoculations two weeks apart, day 17, based on lung weight, versus control
Description: Efficacy of vaccination of mice with the heparin binding domain peptide bFGF in a liposome format was determined in the LLC-LM experimental metastatic model.
Mice were vaccinated with the heparin binding domain peptide of bFGF in a liposome format using the same vaccination regimen as in the B16BL6 experiments above (3 inoculations two weeks apart). Two weeks following the final boost, mice were intravenously challenged with LLC-LM. At day 17, the control (no treatment) mice began to succumb to the tumor burden in the lung. All groups were sacrificed. Lungs were removed and analyzed based on lung weight. Normal lung weight was subtracted out of the treated and non-treated groups to determine the T/C. Vaccination with the heparin binding domain peptide inhibited the growth and development of LLC-LM experimental metastasis by 94% when compared to control. These lungs have been photographed and will be assessed histologically.

B16-BL6 melanoma cells = experiment: B16-BL6-containing gelatin sponge implanted on liver of vaccinated mice, histology; assay type: in vivo; conditions: peptide-liposome vaccinated mice, 14 days after implantation
Source text: In order to determine if vaccination could inhibit the angiogenesis induced by a tumor, gelatin sponges were implanted containing B16-BL6 melanoma cells onto the liver of mice following vaccination with control liposomes (liposomal lipid A), liposomes linked to the heparin binding domain peptide, liposomes linked to the receptor binding domain peptide, or PBS. Fourteen days following implantation, the sponges are removed and examined histologically. Sponges removed from mice vaccinated with liposomal lipid A and PBS contained viable and proliferating B16BL6 tumor cells. In addition, neovascularization into the sponge was abundant. […] Similar to findings from sponges containing bFGF, there was a tremendous amount of red blood cells lacking defined structures surrounding them.

[1] = test system: bFGF-induced vascularization; experiment: bFGF-containing gelatin sponge implanted on liver of vaccinated mice, histology; assay type: in vivo; conditions: peptide-liposome vaccinated mice, sponge with recombinant human bFGF on liver, 14 days after implantation
Source text: Following the vaccination protocol, mice were challenged with bFGF impregnated sponges and neovascularization assessed after 14 days, the results are shown in FIG. 6.
In order to determine if generation of antibody to the bFGF molecule has an effect on bFGF-induced vascularization, gelatin sponges containing recombinant human bFGF were implanted onto the left lobe of the liver of mice following vaccination with the liposomal lipid A controls, liposomes containing the heparin binding domain peptide, liposome containing the receptor binding domain peptide, or PBS. Fourteen days following implantation, the sponges were removed. Vascularity and leukocyte infiltration were assessed histologically. Well defined blood vessels containing red blood cells were evident in sponges removed from mice vaccinated with control preparations (liposomal lipid A and PBS). In addition, there was an abundant amount of cellular infiltration, consisting of white blood cells and fibroblasts. […] Although red blood cells were present in the histological sections of the sponge taken from mice vaccinated with the heparin binding domain peptide, they lacked well defined structures surrounding them.

B16BL6 melanoma = experiment: Growth of B16BL6 tumor cells in vitro with peptide and bFGF (cell counts); assay type: cell-based, murine; conditions: 10,000 cells/well, various peptide concentrations, media with 5 ng/ml bFGF
Description: B16BL6 melanoma were plated at 10,000 cells/well in a 24 well plate and incubated overnight. […] This example provides methods useful for selecting peptides useful for the methods and compositions of the present invention.

B16BL6 = B16BL6 experimental lung metastasis after intravenous challenge of vaccinated mice; assay type: in vivo; conditions: peptide conjugated to liposomes, vaccinated and boosted, intravenous melanoma challenge, 14 days
Source text: Fourteen days after the mice were vaccinated, boosted, and challenged with B16B16 murine melanoma, the animals were sacrificed and the lungs were removed and numbers of melanotic tumor nodules on the surface were counted.
Two weeks following the final boost , mice were intravenously challenged with B16BL6. Mice were sacrificed at day 14 following challenge. […] The heparin binding domain peptide bFGF covalently linked to liposomes was used as a positive control in this experiment.

Sequence	bFGF stimulated HUVEC proliferation (HUVEC)	antibody response in serum (bFGF)	bFGF stimulated HUVEC proliferation (HUVEC; listed as heparin-binding domain peptide)	inhibition of growth and development of LLC-LM experimental metastasis (LLC-LM)	neovascularization and tumor growth in B16-BL6 sponge (B16-BL6 melanoma cells)	cellular infiltration and neovascularization of bFGF sponge [1]	growth of B16BL6 cells, cell counts (B16BL6 melanoma)	mean number of lung metastases (B16BL6)
SNNYNTYRSRKYSSWYVALKR (listed as Homo sapiens) [receptor binding domain peptide, used free or conjugated to lipid A liposomes]	inhibited	no antibody response						
YCKNGGFFLRIHPDGRVDGVREKSDPHIKLQLQAEERGV VSIKGV (YCKNGGFFLRIHPDGRVDGVREKSDPHIKLQLQAEERGVVSIKGV; listed as Homo sapiens) [heparin binding domain peptide, used free or conjugated to lipid A liposomes]	inhibitory effect	antibody response	inhibited	94%	blocked neovascularization and caused ablation of tumor growth and development	lack of cellular infiltration and neovascularization	no significant effect	significantly reduces

From US6805865B1, “Compositions and methods for treating cancer and hyperproliferative disorders” (EntreMed, Inc., priority 1993, dated 2004)
